ChEMBL document CHEMBL1201862, “PubChem BioAssay data set” (2004)
One block for each compound: values may come before it. Active and inactive are the calls of the source.

Assays:
[1] = A549 cell cytotoxicity, dose response, cytotoxicity control, plate reader, cherry-pick, antagonist series (AID 743412); assay type: functional, cell-based
[2] = HepG2 cell cytotoxicity, dose response, cytotoxicity control, plate reader, cherry-pick, antagonist series (AID 743416); assay type: functional, cell-based
[3] = LGR2 antagonists, dose response, cell-based, HEK293, CRE-luciferase reporter, cherry pick, set 2 (AID 743343); assay type: functional;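 also: transfected cells were stimulated with diluted bursicon conditioned medium after compound addition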
[4] = MC4R antagonists, dose response, counter-screen for LGR2 antagonist project, cell-based, plate reader, cherry pick (AID 743444); assay type: functional;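 also: transfected HEK 293 cells stimulated with alpha-MSH peptide; potency of inhibitors of the alpha-MSH evoked signal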
[5] = HEK293 cell cytotoxicity, dose response, cytotoxicity control, plate reader, cherry-picked samples (AID 743446); assay type: functional, cell-based
[6] = P. falciparum 3D7-ScDHODH growth inhibitors, dose response, SYBR Green, dry powder samples (AID 1159570); assay type: functional, cell-based;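 also: parasite growth measured after 72 hours of compound exposure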
[7] = HepG2 cell cytotoxicity, dose response, cytotoxicity control, plate reader, dry powder samples (AID 1159569); assay type: functional, cell-based;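 also: inhibitor potency with signal falling toward the positive control level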
[8] = P. falciparum Dd2 growth inhibitors, dose response, SYBR Green, dry powder samples, set 9 (AID 1159568); assay type: functional, cell-based
[9] = P. falciparum Dd2 growth inhibitors, dose response, SYBR Green, cherry-picked samples (AID 1159567); assay type: functional, cell-based
[10] = P. falciparum Dd2 growth inhibitors, dose response, SYBR Green, dry powder samples (AID 1159566); assay type: functional, cell-based;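 also: potency for growth inhibition with lower SYBR green DNA signal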
[11] = P. falciparum ATP4 D1247Y mutant growth inhibitors, dose response, NITD609-resistant line, SYBR Green, dry powder (AID 1159571); assay type: functional, cell-based;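 also: parasites synchronized at ring stage by sorbitol before testing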
[12] = molecular target: G-protein coupled receptor 183 (Homo sapiens, UniProt P32249); assay: SAR confirmation of small molecule antagonists of the EBI2 receptor via a luminescent beta-arrestin assa.; assay type: functional
Chain of G-protein coupled receptor 183 (P32249 whole entry): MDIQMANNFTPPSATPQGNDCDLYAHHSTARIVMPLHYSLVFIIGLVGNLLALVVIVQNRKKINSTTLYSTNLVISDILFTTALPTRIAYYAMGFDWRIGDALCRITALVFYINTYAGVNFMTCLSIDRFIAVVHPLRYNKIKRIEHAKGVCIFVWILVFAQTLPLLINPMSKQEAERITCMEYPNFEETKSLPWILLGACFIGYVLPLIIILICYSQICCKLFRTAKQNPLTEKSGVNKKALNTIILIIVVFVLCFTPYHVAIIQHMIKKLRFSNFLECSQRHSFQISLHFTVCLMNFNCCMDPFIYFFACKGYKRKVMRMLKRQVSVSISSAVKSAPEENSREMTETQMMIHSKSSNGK

[13] = Concentration-dependent survival of SW480 colon cancer line, luminescence detection with CellTiter-Glo, half-maximal inhibitory concentration (AID 1117338); assay type: functional
[14] = RKO cell viability reduction, dose response, CellTiter-Glo luminescence (AID 1117322); assay type: functional
[15] = cytotoxicity toward HCT116 cells – cell-based, CellTiter-Glo luminescence, IC50, dose response (AID 1117332); assay type: functional; conditions: HCT-116
[16] = SNU-C1 cell viability reduction, dose response, CellTiter-Glo luminescence (AID 1117323); assay type: functional, cell-based
[17] = half-maximal inhibitory concentration for glucagon-like peptide-1 release, STC-1 cell line, dose-response (AID 1117345); assay type: functional, cell-based
[18] = cytotoxicity toward Colo320 cells – cell-based, CellTiter-Glo luminescence, IC50, dose response (AID 1117334); assay type: functional; conditions: COLO 320
[19] = cytotoxicity toward HT-29 cells – cell-based, CellTiter-Glo luminescence, IC50, dose response (AID 1117330); assay type: functional
[20] = CellTiter-Glo luminescent dose response of DLD-1 viability loss (AID 1117352); assay type: functional
[21] = HCT116 cell viability decrease, GSK3B pretreatment – CellTiter-Glo, IC50, dose response (AID 1117339); assay type: functional; conditions: HCT-116
[22] = Glucagon-like peptide 1 release potency, NCI-H716 cell line, dose-response, half-maximal inhibitory concentration (AID 1117344); assay type: functional, cell-based

SMILES: COc1ccccc1C#Cc1ccc([C@H]2[C@@H](C#N)N(C(=O)C3CCCCC3)[C@H]2CO)cc1
AC50 [1]: 21.3 µM (active)
AC50 [2]: 30.5 µM (active)
AC50 [3]: 11.3 µM (active)
AC50 [4]: 7.87 µM (active)
AC50 [5]: 14.9 µM (active)
AC50 [6]: 0.862 µM (active)
AC50 [7]: 29.8 µM (active)
AC50 [8]: 1.17 µM (active)
AC50 [9]: 1.19 µM (active)
AC50 [10]: 0.349 µM (active)
AC50 [11]: 0.443 µM (active)

SMILES: OC[C@@H]1[C@@H](c2ccccc2)C2(CN(CC3CC3)C2)N1Cc1ccc(F)cc1
AC50 [6]: 1.98 µM (active)
AC50 [7]: 43.6 µM (active)
AC50 [9]: 0.919 µM (active)
AC50 [10]: 1.09 µM (active)
AC50 [11]: 1.52 µM (active)

IC50 [12]: 0.0287 µM (active)
SMILES: O=C(/C=C/c1ccc(Br)cc1)N1CCN(Cc2ccccc2F)CC1

IC50 [12]: > 1 µM (inactive)
SMILES: O=C(CCCc1ccc(Br)cc1)N1CCN(C(=O)c2ccc(Cl)cc2)CC1

SMILES: c1ccc2c(c1)Sc1ccccc1N2CC1CN2CCC1CC2 (stereo not drawn) [MEQUITAZINE]
IC50 [13]: 5.43 µM (inactive)
IC50 [14]: 8.46 µM (inactive)
IC50 [15]: > 20 µM (inactive)
IC50 [16]: > 20 µM (inactive)
IC50 [17]: > 40 µM (inactive)
IC50 [18]: > 20 µM (inactive)
IC50 [19]: > 20 µM (inactive)
IC50 [20]: > 20 µM (inactive)
IC50 [21]: > 20 µM (inactive)
IC50 [22]: > 40 µM (inactive)
